The assay deals with RAW264.7 cells. As to the kind of experiment: CS-induced LTB4 production in RAW264.7 culture supernatants (LTB4 EIA). The class given is cell-based. As to conditions: RAW264.7 cells pre-treated with 10 μM Zileuton for 1 h, then 120 μg/cm^2 CS for 6 h. Here is the method:
FIG. 10C depicts LTB4 production by cells in vitro, measured in culture supernatants of RAW264.7 cells exposed to 120 μg/cm^2 CS for 6 h in presence of 5-LO inhibitor.
LKR13 and RAW264.7cells were cultured in DMEM containing 10% FBS. For CS stimulation assays, 0.3 million cells were plated per well of 12-well tissue culture dishes in 400 μl of 1% FBS containing medium. The cells were stimulated for 6 h with 120 μg/cm^2 of CS. Whenever indicated RAW264.7 cells were pre-treated with 10 μM Zileuton (5-LO inhibitor) for 1 h.
Subcutaneous tumors were homogenized in 500 ul 1×PBS buffer containing 10 uM Indomethacin using Omni GLH general homogenizer. The homogenates were centrifuged at 14000 g for 10 min and LTB4 levels in the supernatants were quantified. The LTB4 levels were normalized to the amount of protein in the supernatants measured by Themo Sceintific Pierce BCA protein assay kit following manufacturer's instructions. LTB4 in the tumor homogenate supernatant was expressed as pg/mg of protein. LTB4 in cell culture supernatants, BALF, air pouch lavage and subcutaneous tumors was measured using LTB4 EIA Kit (Cayman Chemical) according to the manufacturer's instructions. IL-1β in cell culture supernatants was measured using Mouse IL-1β ELISA MAX™ Standard Kit (Biolegend) according to the manufacturer's instructions.

Each structure is given as a SMILES string.

Consider `CC(c1cc2ccccc2s1)N(O)C(N)=O` (stereo not shown) [Zileuton], for which the “LTB4 production by CS activation” value is on record as “completely blocked”.

Source of the values: patent US9873878B2, “Compositions and methods for use in treating silicosis and lung cancer” (University of Louisville Research Foundation, Inc., priority 2015, dated 2018).
